In patent US8163795B2, “Chroman derivatives, medicaments and use in therapy” (Marshall Edwards, Inc., priority 2004, dated 2012):
Like-named read-outs stand apart in the source and are kept apart here.

Tests used:
[1] = system: Neonatal foreskin fibroblasts (NFF); test: Proliferation assay (MTT), normal cell toxicity; type: cell-based, Human; settings: Homo sapiens, Fibroblast, read-out: IC50
Procedure: The normal cell line NFF (neonatal foreskin fibroblasts) was a sift from Dr. Peter Parsons (Queensland Institute of Medical Research). RK (rabbit kidney) cells were obtained from Miller Whalley (Macquarie University). Both cell lines were cultured in RPMI supplemented with 10% FCS(CSL, Australia), penicillin (100 U/ml), streptomycin ([…]), L-glutamine (2 mM) and sodium bicarbonate (1.2 g/L), and cultured at 37° C. in a humidified atmosphere of 5% CO2.
(§1) IC50 values were determined for each cell line. Cells were seeded in 96-well plates at an appropriate cell density as determined from growth kinetics analysis and cultured for 5 days in the absence and presence of the test compounds. Cell proliferation was assessed after the addition of 20 μl of 3-4,5 dimethylthiazol-2,5-diphenyl tetrazolium bromide (MTT, 2.5 mg/ml in PBS, Sigma) for 3-4 hrs at 37° C. according to manufacturer's instructions. IC50 values were calculated from semi-log plots of % of control proliferation on the y-axis against log dose on the x-axis.

[2] = system: CP70 ovarian cancer cell line; test: Proliferation assay (MTT); type: cell-based; settings: Ovarian CP70, read-out: IC50
[3] = system: MDA-MB-468 breast cancer cell line; test: Proliferation assay (MTT); type: cell-based; settings: Homo sapiens, Breast MDA-MB-468, read-out: IC50
[4] = DHE and HMC pharmacokinetics, oral, mice; type: in vivo, female BALB/c mice
Procedure: HMC and DHE were prepared as homogenous suspensions in 1% CMC (m:v, water). Both formulations were delivered orally by gavage to female BALB/c mice at a dosage of 50 mg/kg. Three animals were allocated to each timepoint (15 min, 30 min, 1 hr, 4 hr and 24 hr). At each respective timepoint, animals were euthanased by cervical dislocation and blood collected. Free HMC was analysed by mass spectroscopy.

[5] = HMC pharmacokinetics i.v. and i.p., mice; type: in vivo, female BALB/c mice; settings: for concentration at 0.25 hr / concentration at 0.5 h / concentration at 4 hr / concentration at 24 hr / concentration at 1 hr: female, BALB/c, mouse, serum, 50 mg/kg; for concentration at 0.25 hr: 50 mg/kg in 20% HPBCD; for concentration at 0.5 h: 0.50 hr
Procedure: HMC was prepared as a solution in 20% hydroxypropyl-beta-cyclodextrin (m:v, water). […] Three animals were allocated to each timepoint (15 min, 30 min, 1 hr, 4 hr and 24 hr). At each respective timepoint, animals were euthanased by cervical dislocation and blood collected. Urine was also collected and analysed for HMC. Free HMC was analysed by mass spectroscopy.

[6] = system: IGR3 melanoma cells (Trail-resistant); test: Apoptosis incidence in melanoma cells; type: cell-based
[7] = system: MM200 melanoma cell line; test: HMC combination with cisplatin (synergy); type: cell-based; settings: for IC50: Table 8, single agent
Procedure: as §1
3-D model analysis of the cytotoxic interaction between drug A and drug B enables the representation of predicted inhibitory effect of two drugs in combination in 3 dimensions to reveal actual regions of synergy or antagonism. The 3D synergy plots are based on a theory of “Theretical Additivity” (TA) as outlined by Kanzawa et al (Int. J. Cancer 71, 311-319 (1997)). Theoretical Additivity was calculated from the cytotoxicities of drug A and drug B as monotherapies using the following formula which assumes the drugs are mutually exclusive inhibitors: […]
The TA is calculated for each combination of drug concentrations and subtracted from the observed experimental effect for each combination to give a measurement of synergisitic action.
HMC synergy with cisplatin was assessed either in combination over 5 days exposure or in sequence (HMC→cisplatin) against the MM200 melanoma cell line. It was difficult to assess for synergisitic toxicity using a change in IC50 as a measure of synergy due to HMC toxicity as monotherapy (Table 8). […] Evidence of synergy using the HMC-cisplatin combination was further assessed using the HMC→cisplatin sequence (24 hr exposure to each compound in sequence) against the melanoma cell line MM200. Using change in IC50 to assess for synergy it was noted that HMC at concentrations of 2 μM markedly chemosensitised the MM200 cells to cisplatin by >1000 fold (Table 8). HMC induced chemosensitisation of MM200 cells to cisplatin was confirmed using 3D analysis of the data (FIG. 11B).

## COc1ccc(C2c3ccc(O)cc3OCC2c2ccc(O)cc2)cc1 (stereo not shown) [Compound 1, 3-(4-hydroxyphenyl)-4-(4-methoxyphenyl)chroman-7-ol]
[1]; Table 1, Neonatal Foreskin Fibroblasts (Human, NFF)
  IC50: 86100 ± 7600 nM
[1]; NFF
  IC50: 86000 nM
[2]; Table 2.1
  IC50: 1210 ± 290 nM
[2]; Table 2.2 (further studies)
  IC50: 2100 nM
[3]; MDA-MB-468, Table 2.1
  IC50: 1100 ± 350 nM
[3]; MDA-MB-468, Table 2.2
  IC50: 2800 ± 4200 nM
[4]; female, BALB/c, mouse, plasma, po, 50 mg/kg p.o., Time 0.25, read-out: Free plasma concentration
  concentration at 0.25 hr: 0.38 ± 0.04 µM
[4]; female, BALB/c, mouse, plasma, po, 50 mg/kg p.o., Time 0.5, read-out: Free plasma concentration
  concentration at 0.5 hr: 1.3 ± 0.2 µM
[4]; female, BALB/c, mouse, plasma, po, 50 mg/kg p.o., Time 1, read-out: Free plasma concentration
  concentration at 1 hr: 0.95 ± 0.4 µM
[4]; female, BALB/c, mouse, plasma, po, 50 mg/kg p.o., Time 4, read-out: Free plasma concentration
  concentration at 4 hr: 0.19 ± 0.08 µM
[4]; female, BALB/c, mouse, plasma, po, 50 mg/kg p.o., Time 24, read-out: Free plasma concentration
  concentration at 24 hr: 0 nM
[4]; oral 50 mg/kg
  maximum plasma concentration of the free form: 1.3 µM
  ratio of free:total: 0.92
  time of maximum free concentration: 30 min
[5]; 0.5 hr
  free HMC in urine: 3.3 mM
[5]; 1 hr
  free HMC in urine: 3.9 mM
[5]; 1 hr post administration
  serum concentration i.p. vs i.v.: ~4.5 fold
[5]; 4 hr
  free HMC in urine: 0.093 mM
[5]; ip
  concentration at 0.25 hr: 131 µM
  concentration at 0.5 h: 31.8 µM
  concentration at 24 hr: 0.17 µM
[5]; ip, 4 hr
  concentration at 4 hr: 0.15 µM
[5]; ip, i.p., 1 hr post administration, read-out: serum concentration
  concentration at 1 hr: 18.7 µM
[5]; ip, ip, 1 hr, read-out: Serum HMC
  concentration at 1 hr: 18.7 µM
[5]; iv
  concentration at 0.25 hr: 1070 µM
  concentration at 0.5 h: 199 µM
  concentration at 24 hr: 0.05 µM
[5]; iv, 4 hr
  concentration at 4 hr: 0.07 µM
[5]; iv, i.v., 1 hr post administration, read-out: serum concentration
  concentration at 1 hr: 3.98 µM
[5]; iv, iv, 1 hr, read-out: Serum HMC
  concentration at 1 hr: 3.98 µM
[5]; i.p. administration, up to 1 hour post administration
  HMC in plasma: 131 µM
[5]; i.p., hours 1-4 post administration
  elimination kinetics: 4.6 µM/h
[5]; i.p., up to 1 hour post administration
  elimination kinetics: 112 µM/h
[5]; i.v. administration, up to 1 hour post administration
  HMC in plasma: 1069 µM
[5]; i.v. in HPBCD, 15 min post administration
  level of HMC in blood: 1000 µM
[5]; i.v., first hr post administration
  rate of excretion from blood: ~1000 µM/h
[5]; i.v., hours 1-4 post administration, assuming linear excretion
  rate of excretion from blood: 0.97 µM/h
[5]; mice
  serum concentration of free HMC i.p. vs orally delivered HMC: ~18 fold
[6]; 24 hr exposure, 1 uM
  Percent Apoptosis: 8%
[6]; 24 hr exposure, 2 uM
  Percent Apoptosis: 11%
[6]; 24 hr exposure, 4 uM
  Percent Apoptosis: 39%
[6]; 24 hr exposure, 8 uM
  Percent Apoptosis: 41%
[6]; 24 hr exposure, 20 uM
  Percent Apoptosis: 32%
[6]; 48 hr exposure, 1 uM
  Percent Apoptosis: 1%
[6]; 48 hr exposure, 2 uM
  Percent Apoptosis: 9%
[6]; 48 hr exposure, 4 uM
  Percent Apoptosis: 21%
[6]; 48 hr exposure, 8 uM
  Percent Apoptosis: 38%
[6]; 48 hr exposure, 20 uM
  Percent Apoptosis: 38%
[7]; 120 h, 5 days exposure, read-out: IC50, Combined (monotherapy)
  IC50: 720 nM
[7]; HMC 1 uM 24 hr then cisplatin 24 hr
  Change Factor (HMC first): −1.31
[7]; HMC 2 uM 24 hr then cisplatin 24 hr
  Change Factor (HMC first): >10000
[7]; HMC 2 μM, HMC→cisplatin sequence
  chemosensitisation of MM200 cells to cisplatin (change in IC50): > 1000 fold
[7]; HMC 5 uM 24 hr then cisplatin 24 hr
  Change Factor (HMC first): >10000
[7]; HMC 10 uM 24 hr then cisplatin 24 hr
  Change Factor (HMC first): >10000
[7]; 24 hr exposure, read-out: IC50, 24 hr (monotherapy)
  IC50: 20600 nM
